From PubChem BioAssay (NCI) come the findings set out here.

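96-well plates; 48 h exposure; 5 concentrations. Endpoints by linear interpolation between flanking doses. Not reached: highest tested concentration assigned. At the GI50, growth is halved. TGI denotes the concentration required for complete inhibition of growth.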

What all share (assay): NCI-60 cell line screen, 48 h
Assay [1] deals with A498 renal.
Assay [2] deals with A549 NSCLC.
Assay [3] relates to HCT-116 colon.
Assay [4] deals with HS 578T breast.
Assay [5] deals with IGROV1 ovarian.
Assay [6] relates to K-562 leukemia.
Assay [7] relates to NCI-H226 lung.
Assay [8] deals with SK-MEL-2 melanoma.
Assay [9] has as its system T-47D breast.
For assay [10], the system named is UACC-62 melanoma.

Turning to `C/C(CC(C)(C)N1CC1)=N\NC(=O)Nc1cccc2ccccc12`, the GI50 in assay [1] was 2.55 µM; in assay [2], 3.53 µM; in [3], 3.32 µM; in [4], 2.45 µM; in [5], 4.19 µM; in assay [6], 3.56 µM. In addition, the GI50 in assay [7] is 3.51 µM; in assay [8] it was 2.24 µM; in [9], 4.35 µM; in [10], 4.06 µM. In addition, the TGI in assay [1] came to 9.5 µM; in assay [2], 14.2 µM; in assay [3], 11.5 µM; in [4], 24.7 µM; in [5], 36.9 µM; in assay [6] it was 24.5 µM. For the same molecule, the TGI came to 14.9 µM in assay [7], 5.45 µM in [8], 17.3 µM in assay [9] and 15.8 µM in assay [10].

With `CN(/N=C/c1ccccc1O)c1ccc2ccccc2n1`, the TGI is 38.8 µM in assay [1]; 29.8 µM in assay [2]; > 100 µM in [3]; 72.8 µM in assay [4]; 42.5 µM in [5]; > 100 µM in assay [6]. The TGI is > 100 µM in [7], > 100 µM in assay [8], 50.4 µM in assay [9] and > 100 µM in assay [10].

For the molecule `CCn1c(SCC(=O)Nc2cc(C(F)(F)F)ccc2Cl)nc2ccccc2c1=O`, the GI50 in assay [1] was 16.4 µM; in [3], 17.4 µM; in assay [4], 13 µM; in [5], 28.1 µM; in assay [6], > 100 µM; in assay [7], 29.9 µM. For the same molecule, the GI50 was 24.6 µM in [8], 25.2 µM in assay [9] and 38.4 µM in [10]. Moreover, the TGI in [1] is 59.2 µM; in assay [3] it was > 100 µM; in [4], 48.7 µM; in assay [5], > 100 µM; in assay [6], > 100 µM; in assay [7] it was > 100 µM. Also, the TGI in assay [8] is 72.3 µM; in assay [9], > 100 µM; in [10], > 100 µM.

On to `O=C(Nc1n[nH]c2nc(-c3ccc(O)cc3)c(Br)cc12)C1CC1`, for which the GI50 in assay [1] was 4.65 µM; in assay [2], 4.98 µM; in [3], 1.9 µM; in assay [4], 4.15 µM; in assay [5], 5.75 µM; in assay [6] it was 2.86 µM. In addition, the GI50 in assay [7] was 3.14 µM; in assay [8], 3.07 µM; in [9] it was 3.81 µM; in assay [10], 4.26 µM. In addition, the TGI in assay [1] was 14.4 µM; in [2], > 21.7 µM; in assay [3], > 25 µM; in assay [4], 21.6 µM; in [5], > 20.6 µM; in assay [6], > 25 µM. In addition, the TGI in assay [7] was 13.5 µM; in [8], 7.17 µM; in [9], 14.5 µM; in assay [10], 11.9 µM.

As for `CC1(C)N=c2cc3c(cc2N1c1ccc(Cl)cc1)=Nc1ccccc1N3c1ccc(Cl)cc1`, the GI50 was 8.37 µM in assay [1]; 5.93 µM in assay [2]; 3.68 µM in assay [3]; 12.2 µM in [4]; 13.4 µM in assay [5]; 1.68 µM in assay [6]. Moreover, the GI50 is 4.95 µM in assay [7], 3.9 µM in assay [8], 3.91 µM in assay [9] and 7.18 µM in [10]. The TGI was > 100 µM in assay [1]; > 100 µM in assay [2]; > 100 µM in assay [3]; > 100 µM in assay [4]; > 100 µM in [5]; 4.95 µM in assay [6]. For the same molecule, the TGI in assay [7], in assay [8], in assay [9] and in assay [10] was > 100 µM in each case.

Take `C#Cc1cccc(NC(=O)c2cccc(NC(=O)CCl)c2)c1`: the GI50 was 6.14 µM in assay [1]; 21.6 µM in assay [2]; 7.98 µM in assay [3]; 17.4 µM in assay [4]; 5.79 µM in [5]; 7.74 µM in assay [6]. The GI50 in [7] is 19.8 µM; in assay [8], 62.8 µM; in assay [9] it was 30.2 µM; in assay [10], 26.9 µM. For the same molecule, the TGI in [1] was > 82.5 µM; in assay [2], > 82.5 µM; in [3], 44.6 µM; in assay [4], 76.2 µM; in assay [5], 19.1 µM; in assay [6], > 82.5 µM. The TGI in assay [7] is 59.4 µM; in assay [8], > 82.5 µM; in [9], > 82.5 µM; in [10], > 82.5 µM.

For `COC(=O)C1=C(C(=O)ON)[C@@H]2C=C[C@@]1([C@@H](Cc1ccccc1)Nc1ccccc1)O2`, the GI50 in assay [1] is 12.3 µM; in [2], 16.9 µM; in assay [3], 1.67 µM; in [4], 19.5 µM; in [5], 2.03 µM; in [6] it was 2.46 µM. Besides, the GI50 in [7] was 14.5 µM; in [8], 15.6 µM; in assay [9], 1.61 µM; in [10], 6.37 µM. The TGI in [1] came to 24.8 µM; in assay [2], 32.2 µM; in [3], 3.24 µM; in assay [4], 68.7 µM; in [5], 4.01 µM; in assay [6], 8.72 µM. The TGI in [7] came to 28.8 µM; in assay [8] it was 30 µM; in [9], 4.17 µM; in assay [10] it was 19.3 µM.

With `CC[C@H]1CCC/C=C/[C@@H]2C[C@H](O)C[C@H]2[C@H](O)/C=C/C(=O)O1`, the GI50 was 0.0174 µM in assay [1]; 0.0434 µM in assay [2]; 0.0328 µM in assay [3]; 0.152 µM in assay [5]; 0.125 µM in [6]; 0.0197 µM in assay [7]. Moreover, the GI50 in assay [8] was 0.0337 µM; in assay [9] it was 0.0636 µM; in [10] it was 0.0384 µM. Besides, the TGI in [1] is 0.0596 µM; in [2], > 100 µM; in assay [3], 0.119 µM; in [4] it was > 100 µM; in assay [5], > 100 µM; in [6], > 100 µM. Besides, the TGI in assay [7] was 0.0424 µM; in [8], 0.198 µM; in assay [9] it was 0.263 µM; in [10], > 37.7 µM.
